Results on 9 compounds are retold here after patent US20260062376A1, “SQUARAMIDE DERIVATIVES AS CB1 ALLOSTERIC MODULATORS” (RESEARCH TRIANGLE INSTITUTE, priority 2022, published 2026).

For data set [1], the system named is rats. Kind of data set: Locomotion in rats. The format is in vivo, rat. The following applies: 5.6 mg/kg i.p.
A short description of a further data set: Plasma protein binding. The format is in vitro ADME.
Data set [2] addresses T1, Human CB1 (Homo sapiens (Human), UniProt P21554). Kind of data set: Calcium mobilization assay (antagonist mode vs CP55,940). It is filed as cell-based. The conditions noted are these: CHO-RD-HGA16 cells stably expressing human CB1; against EC50 concentration of CP55,940; mean ± SEM, at least three experiments. As to the method:
Calcium Mobilization Assay: CHO-RD-HGA16 cells (Molecular Devices, San Jose, California, United States of America) stably expressing the human CB1 receptor were plated into 96-well black-walled assay plates at 25,000 cells/well in 100 μL of Ham's F12 (supplemented with 10% fetal bovine serum, 100 units of penicillin/streptomycin, and 100 μg/mL Normocin) and incubated overnight at 37° C., 5% CO2. Calcium 5 dye (Molecular Devices, San Jose, California, United States of America) was reconstituted according to the manufacturer's instructions. The reconstituted dye was diluted 1:40 in prewarmed (37° C.) assay buffer (lx HBSS, 20 mM HEPES, 2.5 mM probenecid, pH 7.4 at 37° C.). Growth medium was removed, and the cells were gently washed with 100 μL of prewarmed (37° C.) assay buffer. […] After the pretreatment incubation period, the plate was read with a FLIPR Tetra (Molecular Devices, San Jose, California, United States of America). […] Relative fluorescence units (RFU) were plotted against the log of compound concentrations. […] Test compound RFUs were compared to the CP55,940 Emax RFUs to generate % Emax values. For the CB2 agonist and antagonist assays, the same procedures were followed except that stable human CB2—CHO-RD-HGA16 cells were used.
(§1) Data Analysis: For calcium mobilization experiments, data were fit to a three-parameter logistic curve to generate IC50 values (GraphPad Prism 6.0, Graphpad Software, San Diego, California, United States of America). For [^35S]GTPγS experiments, data were normalized to maximal CP55,940 (100 nM) stimulation in the absence of test compound (i.e., vehicle=100%).
A general note: A change in cytosolic calcium serves as a functional read-out for many receptors and channels.

Data set [3] in a line: Metabolic stability in rat liver microsomes. The format is in vitro ADME. The following applies: for microsomal CLint / half-life: pH 7.4, 0.5 mg/mL protein; for microsomal CLint: read-out: Rat Liver microsome Clearance; for half-life: read-out: Rat Liver microsome T1/2. As to the method: Metabolic stability assessment: Compounds were incubated with rat liver microsomes at 37° C. for a total of 45 minutes. The reaction was performed at pH 7.4 in 100 mM potassium phosphate buffer containing 0.5 mg/mL of rat liver microsomal protein. Phase I metabolism was assessed by adding NADPH to a final concentration of 1 mM and collecting samples at time points 0, 5, 15, 30 and 45 minutes. All collected samples were quenched 1:1 with ice-cold stop solution (1 μM labetalol and 1 μM glyburide in acetonitrile) and centrifuged to remove precipitated protein. Resulting supernatants were further diluted 1:4 with acetonitrile:water (1:1). Samples were analyzed by LC/MS/MS and calculations for half-life, and in-vitro clearance were accomplished using Microsoft Excel (2007).
In general terms: Liver microsomes are vesicles of endoplasmic reticulum, rich in cytochrome P450 enzymes.

A short description of data set [4]: Kinetic solubility assessment. The conditions noted are these: phosphate buffer solution, 2 hours at room temperature, target 400 μM. The format is physicochemical. As to the method: The solution was agitated on a VX-2500 multi-tube vortexer (VWR International, Radnor, Pennsylvania, United States of America) for 2 hours at room temperature. Following agitation, the sample was filtrated on a glass-fiber filter (1 μm) and the eluate was diluted 400-fold with a mixture of acetonitrile: water (1:1). On each experimental occasion, nicardipine and imipramine were assessed as reference compounds for low and high solubility, respectively. All samples were assessed in triplicate and analyzed by LC-MS/MS using electrospray ionization against standards prepared in the same matrix.

A further data set relates to MDCK-mdr1 cells. The data set is described as follows: Bidirectional MDCK-MDR1 permeability assay. It is filed as in vitro ADME. As for the experimental part: Permeability Assessment. Bidirectional MDCK-MDR1 permeability assay was performed by Paraza Pharma Inc. (Montreal, Canada). MDCK-mdr1 cells at passage 5 were seeded onto permeable polycarbonate supports in 12-well Costar Transwell plates and allowed to grow and differentiate for 3 days. On day 3, culture medium (DMEM supplemented with 10% FBS) was removed from both sides of the transwell inserts and cells were rinsed with warm HBSS. After the rinse step, the chambers were filled with warm transport buffer (HBSS containing 10 mM HEPES, 0.25% BSA, pH 7.4) and the plates were incubated at 37° C. for 30 min prior to TEER (Trans Epithelial Electric Resistance) measurements.
The buffer in the donor chamber (apical side for A-to-B assay, basolateral side for B-to-A assay) was removed and replaced with the working solution (10 μM test article in transport buffer). The plates were then placed at 37° C. under light agitation. At designated time points (30, 60 and 90 min), an aliquot of transport buffer from the receiver chamber was removed and replenished with fresh transport buffer. Samples were quenched with ice-cold ACN containing internal standard and then centrifuged to pellet protein. Resulting supernatants are further diluted with 50/50 ACN/H2O (H2O only for Atenolol) and submitted for LC-MS/MS analysis. Reported apparent permeability (Papp) values were calculated from single determination. Atenolol and propranolol were tested as low and moderate permeability references.
The apparent permeability (Papp, measured in cm/s) of a compound is determined according to the following formula from two independent experiments in duplicate: […]
where dQ/dt is the net rate of appearance in the receiver compartment; A is the area of the Transwell measured in cm^2 (1.12 cm^2); Ci is the initial concentration of compound added to the donor chamber; and 60 is the conversion factor for minute to second.

Data set [5] deals with T1, Human CB1. The data set is described as follows: Human CB1 HEK293 membrane [35S]GTPγS binding assay. The conditions noted are these: HEK293 membranes expressing human CB1, in presence of CP55,940, mean ± SEM; for IC50: read-out: Human CB1 HEK293 membrane [35S]GTPγS binding assay pIC50 ± SEM (converted). The format is biochemical. As for the experimental part: Non-specific binding was determined by adding 30 μM unlabeled GTPγS.
as §1

The next data set concerns the target Mouse CB1 (Mus musculus (Mouse), UniProt P47746). Kind of data set: Mouse CB1 [35S]GTPγS binding assay (ICR mouse cerebellum membranes). The format is biochemical. The conditions noted are these: in presence of CP55,940, mean ± SEM. As to the method:
[^35S]GTPγS Binding Assay: For receptor signaling, membranes (10 μg protein) from either ICR mouse cerebellum mice (6-8 weeks old; Enviga International, Indianapolis, Indiana, United States of America) or HEK cells stably expressing CB1 receptor were preincubated in assay buffer for 10 min with 3 units/ml adenosine deaminase then incubated for 60 min at 30° C. with 30 μM GDP and 0.1 nM [^35S]GTPγS (Perkin Elmer Life Sciences, Boston, Massachusetts, United States of America). Non-specific binding was determined by adding 30 μM unlabeled GTPγS.
as §1
Background: GTPγS is a poorly hydrolysed GTP analogue; its binding reports G protein activation.

The test system of data set [6] is rats. The conditions noted are these: cited from earlier work.
The conditions of data set [7]: in vivo; cited from earlier work.
Data set [8] has as its system rats. The conditions noted are these: 10 mg/kg; cited from earlier work.

Mouse CB1, sequence (P47746 whole entry): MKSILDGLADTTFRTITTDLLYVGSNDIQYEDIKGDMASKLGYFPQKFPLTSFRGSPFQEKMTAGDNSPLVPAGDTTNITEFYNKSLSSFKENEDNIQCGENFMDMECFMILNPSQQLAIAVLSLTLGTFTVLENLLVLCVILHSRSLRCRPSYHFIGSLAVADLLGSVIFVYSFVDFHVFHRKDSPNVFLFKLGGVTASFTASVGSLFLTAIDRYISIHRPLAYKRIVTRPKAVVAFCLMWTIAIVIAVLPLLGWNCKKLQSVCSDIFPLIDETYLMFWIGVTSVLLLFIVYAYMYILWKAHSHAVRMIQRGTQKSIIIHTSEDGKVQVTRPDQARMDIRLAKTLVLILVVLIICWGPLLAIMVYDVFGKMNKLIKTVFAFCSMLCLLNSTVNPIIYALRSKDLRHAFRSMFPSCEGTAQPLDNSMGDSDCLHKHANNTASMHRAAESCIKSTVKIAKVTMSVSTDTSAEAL
T1 sequence (P21554 whole entry): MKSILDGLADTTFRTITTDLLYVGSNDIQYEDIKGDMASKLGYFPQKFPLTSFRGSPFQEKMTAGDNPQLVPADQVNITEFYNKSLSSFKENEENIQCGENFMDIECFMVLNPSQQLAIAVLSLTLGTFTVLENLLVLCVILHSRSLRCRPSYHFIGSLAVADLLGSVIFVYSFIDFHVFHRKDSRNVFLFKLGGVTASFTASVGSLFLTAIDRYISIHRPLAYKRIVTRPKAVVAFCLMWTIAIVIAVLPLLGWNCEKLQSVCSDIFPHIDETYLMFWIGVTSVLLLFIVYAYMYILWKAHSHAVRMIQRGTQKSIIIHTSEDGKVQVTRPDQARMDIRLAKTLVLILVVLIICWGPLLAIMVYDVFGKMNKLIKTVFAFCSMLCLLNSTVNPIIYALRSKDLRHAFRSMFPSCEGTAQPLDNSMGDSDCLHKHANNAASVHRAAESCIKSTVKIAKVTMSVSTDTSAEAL

What is called solubility (kinetic) is the concentration staying in solution when a stock, usually in DMSO, is diluted into the medium. For the compound `O=c1c(NCCc2cccc(Cl)c2)c(Nc2ccc(Cl)cc2)c1=O` [Compound 7, 3-[(4-Chlorophenyl)amino]-4-{[2-(3-chlorophenyl)ethyl]amino}cyclobut-3-ene-1,2-dione], the Effect on locomotion entry in the data set on rats [1] is “without affecting locomotion”. The Effect on locomotion entry in the data set with rats [1] (listed as Compound 6) is on record as “did not affect locomotion”. Moreover, in “Plasma protein binding”, the “% Plasma Protein Bound” value is on record as more than 99.74%. The IC50 at Human CB1 [2] was 130 ± 12 nM. Moreover, in data set [3] (NADPH, 37° C.), the microsomal CLint was determined as 34.7 µL/min/mg and the half-life was 40 min. The “Metabolic stability in rat liver microsomes compared with PSNCBAM-1” value in [3] (versus PSNCBAM-1) is given as “better metabolic stability”. Also, the solubility (kinetic) at 2 h in [4] is reported as less than 1 µM. In addition, in the data set with MDCK-mdr1 cells (MDCK-MDR1), the “Efflux ratio BA/AB” value was 2.1. In addition, in the data set on MDCK-mdr1 cells (MDCK-MDR1, 10 μM, apical to basolateral), the “Papp A to B (x10^-6 cm/s)” value is listed as 3.1 x10^-6 cm/s. Also, the “Papp B to A (x10^-6 cm/s)” value in the data set on MDCK-mdr1 cells (MDCK-MDR1, 10 μM, basolateral to apical) is reported as 6.4 x10^-6 cm/s.
For `O=c1c(NCCc2ccccc2)c(Nc2ccc(Cl)cc2)c1=O` [Compound 11, 3-[(4-Chlorophenyl)amino]-4-[(2-phenylethyl)amino]cyclobut-3-ene-1,2-dione], the IC50 at Human CB1 [5] was 776 nM; at Human CB1 [2] it was 210 ± 39 nM.
For `N#Cc1ccc(Nc2c(NCCc3cccc(Cl)c3)c(=O)c2=O)cc1` [Compound 28, 4-[(2-{[2-(3-Chlorophenyl)ethyl]amino}-3,4-dioxocyclobut-1-en-1-yl)amino]benzonitrile], the IC50 on Human CB1 [5] was 398 nM; at Human CB1 [2], 460 ± 66 nM.
`O=c1c(Nc2ccc(Cl)cc2)c(Nc2cccc(-c3ccc(F)cc3)c2)c1=O` [Compound 33, 3-[(4-Chlorophenyl)amino]-4-[(4′-fluorobiphenyl-3-yl)amino]cyclobut-3-ene-1,2-dione]: in “Plasma protein binding”, the “% Plasma Protein Bound” value is on record as 99%. Besides, the IC50 on Human CB1 [5] is 501 nM; on Human CB1 [2], 575 ± 100 nM; on Mouse CB1 (read-out: Mouse CB1 [35S]GTPγS binding assay pIC50 ± SEM (converted)), 110 nM. Further, the microsomal CLint in data set [3] (NADPH, 37° C.) was found to be 59.6 µL/min/mg. The half-life in data set [3] (NADPH, 37° C.) came out at 23.7 min. The kinetic solubility at 2 h in data set [4] (aqueous buffer, kinetic from dmso stock) was less than 1 µM.
On to `CC(=O)c1ccc(CCNc2c(Nc3ccc(Cl)cc3)c(=O)c2=O)cc1` [Compound 40, 3-{[2-(A-acetylphenyl)ethyl]amino}-4-[(4-chlorophenyl)amino]cyclobut-3-ene-1,2-dione], for which the “Human CB1 HEK293 membrane [35S]GTPγS binding assay pIC50 ± SEM” value on Human CB1 [5] came out at 6.77 ± 0.04. Moreover, the IC50 on Human CB1 [2] was determined as 350 ± 10 nM. Moreover, at Mouse CB1, the “Mouse CB1 [35S]GTPγS binding assay pIC50 ± SEM” value turned out to be 6.70 ± 0.09.
For `O=c1c(NCCc2ccc(F)cc2F)c(Nc2ccc(Cl)cc2)c1=O` [Compound 47, 3-[(4-Chlorophenyl)amino]-4-{[2-(2,4-difluorophenyl)ethyl]amino}cyclobut-3-ene-1,2-dione], the “Human CB1 HEK293 membrane [35S]GTPγS binding assay pIC50 ± SEM” value on Human CB1 [5] is 6.84 ± 0.08. Also, the IC50 at Human CB1 [2] was 362 ± 30 nM. The “Mouse CB1 [35S]GTPγS binding assay pIC50 ± SEM” value on Mouse CB1 amounted to 6.61 ± 0.19.
In the case of `O=C(Nc1ccc(Cl)cc1)Nc1cccc(-c2cccc(N3CCCC3)n2)c1` [PSNCBAM-1, reference compound], the “Food intake and body weight in rats” value with rats [6] was “reduces food intake and body weight”. Further, the “Rat Liver microsome T1/2” value in data set [3] (0.5 mg/mL protein, NADPH, 37° C.) was found to be 13 min.
With `N#Cc1ccc(NC(=O)Nc2cccc(-c3cccc(N4CCCC4)n3)c2)cc1` [RTICBM-28], the “THC's potency in drug discrimination” value in data set [7] is reported as “reduces THC's potency in drug discrimination”.
Take `O=C(NCCc1cccc(Cl)c1)Nc1ccc(Cl)cc1` [RTICBM-189]: the “Drug-induced reinstatement of cocaine seeking in rats” value in the data set with rats [8] was “attenuates drug-induced restatement of cocaine seeking”.
